Measured values taken from patent US20110046131A1, “PURINES AS PKC-THETA INHIBITORS” (N.V. Organon and Pharmacopeia, LLC, priority 2006, published 2011).

How the values were obtained:
PKC alpha = target: T1, PKC alpha (Homo sapiens, UniProt P17252); assay: Ki Pan Vera (PV) potency for PKC alpha; assay type: biochemical; conditions: Ki Pan Vera (PV) of PKC alpha
T1 construct: purchased Pan Vera
Method: [The source words this procedure for another target and reports this target under the same test.] (§1) For Ki Pan Vera (PV) of PKCθ, entries identified with “A” had values below 100 nM; entries identified with “B” had values below 1 μM; and entries identified with “C” had values below 10 μM.

PKCθ = target: T2, PKCθ (Homo sapiens, UniProt Q04759); assay: Ki Pan Vera (PV) potency for PKCθ; assay type: biochemical; conditions: Ki Pan Vera (PV) of PKCθ
T2 construct: purchased Pan Vera
Method: as §1

PKC delta = target: T3, PKC delta (Homo sapiens, UniProt Q05655); assay: Ki Pan Vera (PV) potency for PKC delta; assay type: biochemical; conditions: Ki Pan Vera (PV) of PKC delta
T3 construct: purchased Pan Vera
Method: [The source words this procedure for another target and reports this target under the same test.] as §1

SGK kinase = target: T4, SGK kinase (Homo sapiens, UniProt O00141); assay: IC50 for SGK kinase (selectivity); assay type: biochemical; conditions: for IC50: read-out: IC50-SGK1
T4 sequence (O00141 1-431): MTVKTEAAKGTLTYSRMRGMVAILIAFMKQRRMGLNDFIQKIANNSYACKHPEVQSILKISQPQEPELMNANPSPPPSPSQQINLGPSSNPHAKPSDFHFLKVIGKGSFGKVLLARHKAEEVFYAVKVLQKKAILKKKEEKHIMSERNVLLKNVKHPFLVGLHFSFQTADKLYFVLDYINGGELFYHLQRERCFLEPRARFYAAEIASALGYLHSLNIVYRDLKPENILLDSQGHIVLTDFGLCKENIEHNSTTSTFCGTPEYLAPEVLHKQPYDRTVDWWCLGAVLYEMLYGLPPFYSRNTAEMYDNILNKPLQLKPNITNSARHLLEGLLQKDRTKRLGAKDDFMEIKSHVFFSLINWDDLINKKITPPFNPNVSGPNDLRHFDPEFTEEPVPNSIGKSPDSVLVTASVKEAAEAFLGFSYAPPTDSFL
Method: Entries identified with “1” had values above 250 nM; entries identified with “2” had values above 1 μM; entries identified with “3” had values above 10 μM.

[1] = tested on: anti-CD3 induced interleukin-2 (IL-2) production; assay: anti-CD3 induced interleukin-2 (IL-2) production in mice; assay type: in vivo
Method: The compounds of the invention were also tested in vivo.

T3 sequence (Q05655 whole entry): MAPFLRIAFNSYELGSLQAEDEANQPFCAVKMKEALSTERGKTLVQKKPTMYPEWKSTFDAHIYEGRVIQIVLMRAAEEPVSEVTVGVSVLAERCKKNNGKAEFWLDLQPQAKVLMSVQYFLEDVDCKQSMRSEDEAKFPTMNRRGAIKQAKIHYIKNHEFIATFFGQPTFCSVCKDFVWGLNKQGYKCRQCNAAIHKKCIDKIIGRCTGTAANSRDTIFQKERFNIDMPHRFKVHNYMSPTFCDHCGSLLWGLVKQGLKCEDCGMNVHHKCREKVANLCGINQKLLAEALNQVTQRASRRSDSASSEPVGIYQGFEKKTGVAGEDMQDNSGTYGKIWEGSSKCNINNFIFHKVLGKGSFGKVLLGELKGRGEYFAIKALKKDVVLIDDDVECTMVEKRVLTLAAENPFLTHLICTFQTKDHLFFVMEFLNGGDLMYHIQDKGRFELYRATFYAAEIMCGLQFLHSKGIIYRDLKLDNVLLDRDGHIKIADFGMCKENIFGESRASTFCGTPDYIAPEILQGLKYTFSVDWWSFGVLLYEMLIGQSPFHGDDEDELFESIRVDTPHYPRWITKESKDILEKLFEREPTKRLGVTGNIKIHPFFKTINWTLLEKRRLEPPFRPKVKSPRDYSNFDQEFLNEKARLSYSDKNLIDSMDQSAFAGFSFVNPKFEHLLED
T2 sequence (Q04759 whole entry): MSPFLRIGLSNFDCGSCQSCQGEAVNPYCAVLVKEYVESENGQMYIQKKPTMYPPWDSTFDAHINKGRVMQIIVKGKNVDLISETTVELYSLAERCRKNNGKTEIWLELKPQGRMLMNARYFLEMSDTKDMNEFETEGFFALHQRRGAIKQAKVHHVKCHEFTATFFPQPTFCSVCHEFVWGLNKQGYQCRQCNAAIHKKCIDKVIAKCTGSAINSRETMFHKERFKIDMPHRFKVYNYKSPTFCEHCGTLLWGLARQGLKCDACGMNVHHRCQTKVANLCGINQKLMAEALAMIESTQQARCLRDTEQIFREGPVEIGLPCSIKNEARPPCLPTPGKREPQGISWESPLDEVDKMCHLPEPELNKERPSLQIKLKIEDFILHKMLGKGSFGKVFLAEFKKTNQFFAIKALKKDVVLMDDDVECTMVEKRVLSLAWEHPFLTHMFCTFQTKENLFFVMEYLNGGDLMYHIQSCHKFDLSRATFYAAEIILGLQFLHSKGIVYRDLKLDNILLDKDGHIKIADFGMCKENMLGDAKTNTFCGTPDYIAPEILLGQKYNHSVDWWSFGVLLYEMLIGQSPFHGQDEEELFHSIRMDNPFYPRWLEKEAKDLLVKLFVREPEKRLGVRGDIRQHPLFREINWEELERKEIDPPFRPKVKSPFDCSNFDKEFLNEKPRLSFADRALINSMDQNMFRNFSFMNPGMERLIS

Ki (PKC alpha) | Ki (PKCθ) | Ki (PKC delta) | IC50-SGK1 (SGK kinase) | IC50 (SGK kinase) | SMILES | % inhibition of IL-2 production ([1]; subcutaneous dose 30 mg/kg) | % inhibition of IL-2 production ([1]; subcutaneous dose 1 mg/kg)
> 1000 nM | < 100 nM | > 250 nM |  |  | Fc1ccc(CNc2ncc3nc(-c4c(F)cccc4Cl)n(C[C@@H]4CCCNC4)c3n2)cc1F [Compound 113, N-(3,4-difluorobenzyl)-8-(2-chloro-6-fluorophenyl)-9-((R)-piperidin-3-ylmethyl)-9H-purin-2-amine] | 38% | 
> 1000 nM | < 1000 nM | > 1000 nM | Inactive |  | Fc1ccc(CNc2ncc3nc(-c4c(Cl)cccc4Cl)n(C[C@H]4CCNC4)c3n2)cc1Cl [Compound 120] | 35% | 
> 10000 nM | < 10000 nM | > 1000 nM | Inactive |  | NCCCCCCn1c(-c2ccccc2Cl)nc2cnc(NCc3ccccc3F)nc21 [Compound 207] |  | 
> 1000 nM | < 1000 nM | > 1000 nM | Inactive |  | Fc1ccc(F)c(CNc2ncc3nc(-c4c(F)cccc4Cl)n(C[C@H]4CCNC4)c3n2)c1 [Compound 209] |  | 
> 10000 nM | < 10000 nM | > 1000 nM | Inactive |  | Fc1ccc(CNc2ncc3nc(-c4ccccc4Cl)n(C[C@@H]4CCCNC4)c3n2)c(F)c1 [Compound 210] |  | 
> 1000 nM | < 1000 nM | > 1000 nM |  | > 1000 nM | Fc1ccccc1CNc1ncc2nc(-c3c(F)cccc3Cl)n(C[C@H]3CCNC3)c2n1 [Compound 211] |  | 
> 10000 nM | < 1000 nM | > 10000 nM | Inactive |  | C[C@H](Nc1ncc2nc(-c3ccccc3Cl)n(C[C@@H]3CCCNC3)c2n1)c1ccccc1F [Compound 217] |  | 

The remaining lines, values behind:

SMILES | Ki (PKC alpha) | Ki (PKCθ) | Ki (PKC delta) | IC50-SGK1 (SGK kinase) | IC50 (SGK kinase) | % inhibition of IL-2 production ([1]; subcutaneous dose 30 mg/kg) | % inhibition of IL-2 production ([1]; subcutaneous dose 1 mg/kg)
Fc1ccc(CNc2ncc3nc(-c4c(Cl)cccc4Cl)n(C[C@@H]4CCCNC4)c3n2)cc1Cl [Compound 100] | > 1000 nM | < 100 nM | > 250 nM | Inactive |  | 38% | 
Fc1ccc(CNc2ncc3nc(-c4c(Cl)cccc4Cl)n(C[C@@H]4CCCNC4)c3n2)cc1F [Compound 101] | > 1000 nM | < 100 nM | > 250 nM | Inactive |  | 58% | 
Clc1ccc(CNc2ncc3nc(-c4c(Cl)cccc4Cl)n(CC4CCNC4)c3n2)cc1Cl (centres unmarked) [Compound 206] | > 10000 nM | < 10000 nM | > 1000 nM |  | > 10000 nM |  | 
CC(Nc1ncc2nc(-c3c(Cl)cccc3Cl)n(CCC3CCNCC3)c2n1)c1ccccc1 (centres unmarked) [Compound 212] | > 10000 nM | < 10000 nM | > 10000 nM | Inactive |  |  | 
Fc1cc(Cl)ccc1CNc1ncc2nc(-c3c(Cl)cccc3Cl)n(C[C@@H]3CCCNC3)c2n1 [Compound 213] | > 10000 nM | < 10000 nM | > 10000 nM | Inactive |  |  | 
Clc1cccc(Cl)c1-c1nc2cnc(NCc3ccco3)nc2n1CCC1CCNCC1 [Compound 214] | > 1000 nM | < 10000 nM | > 1000 nM |  | > 10000 nM |  | 
Fc1cccc(Cl)c1-c1nc2cnc(NCc3cccc(Cl)c3)nc2n1C[C@H]1CCNC1 [Compound 216] | > 1000 nM | < 1000 nM | > 1000 nM | Inactive |  |  | 
Fc1ccc(CNc2ncc3nc(-c4c(F)cccc4Cl)n(CC4CCNC4)c3n2)cc1F (centres unmarked) [Compound 223] | > 1000 nM | < 1000 nM | > 1000 nM |  | > 10000 nM |  | 
Fc1ccccc1CNc1ncc2nc(-c3ccccc3Cl)n(CCC3CCNCC3)c2n1 [Compound 240] | > 10000 nM | < 1000 nM | > 1000 nM | Inactive |  |  | 
C=CC[C@@H]1/C=C(\C)C[C@H](C)C[C@H](OC)[C@H]2O[C@@](O)(C(=O)C(=O)N3CCCC[C@H]3C(=O)O[C@H](/C(C)=C/[C@@H]3CC[C@@H](O)[C@H](OC)C3)[C@H](C)[C@@H](O)CC1=O)[C@H](C)C[C@@H]2OC [FK506, reference compound] |  |  |  |  |  |  | 87%
